The subject of one series is human subjects. The experiment in a line: Gastrointestinal tolerance study of iced cupcakes (Test Protocol 1; randomized, double-blind, crossover). The settings on record: after 24 hours; compared to SWEETENER 1. The series is classed as in vivo. The source says: In many embodiments, the sweetener compositions of the invention have improved gastrointestinal tolerance in humans. For example, the sweetener compositions of the invention have improved gastrointestinal tolerance as compared to maltitol. Gastrointestinal tolerance can be measured, for example, using a randomized, double blind, crossover, repeated measure design protocol, such described in Test Protocol 1 in the Example section of the application. In a representative test, a test food comprising a sweetener to be tested is consumed by human subjects, and the subjects are required to complete a gastrointestinal survey at various intervals, prior to and after, consuming the test food. For example, the human subject may complete the survey at 0 hours (i.e., just prior to consuming the test food), 2 hours, 6 hours, 12 hours, and 24 hours after consuming the test food. The food is then rated at the various time periods for gastrointestinal tolerance as evidenced by gastrointestinal effects such as gastrointestinal rumbling, abdominal cramping, gas/bloating, excessive flatulence, loose stools, and diarrhea. […]
The study used a randomized, double-blind, crossover, repeated measure design. […] Diarrhea was recorded as a yes/no response. […]

The conditions of series [1]: in vivo; cited from earlier work.

In the case of `OC[C@@H](O)[C@@H](O[C@H]1O[C@H](CO)[C@@H](O)[C@H](O)[C@H]1O)[C@H](O)[C@@H](O)CO` [COMP. SWEETENER A, Maltitol], in the series with human subjects, the abdominal cramping result is recorded as “Significantly milder”.
Consider `OC[C@@H](O)[C@@H](O)CO` [Erythritol], for which the “fraction absorbed in the small intestine and excreted unchanged in the urine” value in series [1] is “about 90%”.
